Tests used:
in vitro = conditions: human, uninfected SupT1 cells (T-lymphocyte line)
[1] = system: HIV strain NL4.3 carrying a gene encoding the green fluorescent protein (NL4.3-GFP); assay: microbe, parasite or virus in culture; conditions: Human immunodeficiency virus 1, SUP-T1, 45 h, read-out: Activity (EC50)
[2] = system: HIV strain NL4.3 carrying a gene encoding the green fluorescent protein (NL4.3-GFP); conditions: SupT1 cells

Question: For `CC(C)OC(=O)[C@H](C)N[P@](=O)(CO[C@H](C)Cn1cnc2c(N)ncnc21)Oc1ccccc1` [TAF, tenofovir alafenamide], which CC50 (in vitro) is on record?
Answer: The CC50 was greater than 100000 nM.

Question: And the EC50 [1]?
Answer: The EC50 was 35 nM.

Question: What about the “selectivity index SI = CC50/EC50” value [2] of the same compound?
Answer: The value was 2857.
